Earlier results as cited in patent publication US12326454B2 (Arium BioLabs LLC, priority 2019, dated 2025).

Biological target: cMET (Homo sapiens, UniProt P08581)
Conditions: stabilizes the A-loop, auto-inhibited conformation

Sequence of cMET (P08581 25-1390): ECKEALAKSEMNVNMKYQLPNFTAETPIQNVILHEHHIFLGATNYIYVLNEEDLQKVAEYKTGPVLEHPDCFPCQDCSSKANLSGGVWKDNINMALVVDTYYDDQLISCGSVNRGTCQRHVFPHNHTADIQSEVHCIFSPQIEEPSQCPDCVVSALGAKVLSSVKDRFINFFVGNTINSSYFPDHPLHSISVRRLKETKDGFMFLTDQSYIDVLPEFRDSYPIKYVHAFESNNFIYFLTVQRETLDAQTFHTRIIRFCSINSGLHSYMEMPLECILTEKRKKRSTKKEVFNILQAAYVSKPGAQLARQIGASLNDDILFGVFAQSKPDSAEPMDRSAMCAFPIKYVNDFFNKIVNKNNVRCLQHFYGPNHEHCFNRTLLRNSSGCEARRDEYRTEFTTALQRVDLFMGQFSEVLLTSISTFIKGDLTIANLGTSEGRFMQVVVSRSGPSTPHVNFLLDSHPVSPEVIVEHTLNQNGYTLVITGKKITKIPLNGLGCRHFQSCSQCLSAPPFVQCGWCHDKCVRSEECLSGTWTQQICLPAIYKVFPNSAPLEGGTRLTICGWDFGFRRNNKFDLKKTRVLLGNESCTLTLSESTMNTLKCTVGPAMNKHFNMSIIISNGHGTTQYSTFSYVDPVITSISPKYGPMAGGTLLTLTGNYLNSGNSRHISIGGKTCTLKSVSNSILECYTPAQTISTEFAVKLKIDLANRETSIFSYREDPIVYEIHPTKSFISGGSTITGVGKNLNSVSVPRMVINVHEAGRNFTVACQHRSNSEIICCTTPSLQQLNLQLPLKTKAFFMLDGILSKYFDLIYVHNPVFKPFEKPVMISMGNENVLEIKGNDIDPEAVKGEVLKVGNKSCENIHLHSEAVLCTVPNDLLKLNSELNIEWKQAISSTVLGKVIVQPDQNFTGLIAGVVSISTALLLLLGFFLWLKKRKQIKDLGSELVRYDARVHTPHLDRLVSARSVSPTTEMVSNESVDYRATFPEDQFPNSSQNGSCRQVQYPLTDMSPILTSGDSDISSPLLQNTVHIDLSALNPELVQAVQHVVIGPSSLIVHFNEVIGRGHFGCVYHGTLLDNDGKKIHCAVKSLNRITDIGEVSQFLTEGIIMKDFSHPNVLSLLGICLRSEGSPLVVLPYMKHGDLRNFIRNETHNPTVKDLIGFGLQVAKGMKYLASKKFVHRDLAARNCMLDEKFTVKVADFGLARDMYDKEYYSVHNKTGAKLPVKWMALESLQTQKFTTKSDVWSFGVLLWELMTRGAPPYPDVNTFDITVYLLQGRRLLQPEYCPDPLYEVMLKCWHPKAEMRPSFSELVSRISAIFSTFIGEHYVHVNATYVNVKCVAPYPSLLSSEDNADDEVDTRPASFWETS

O=C1NC(=O)[C@@H](c2cn3c4c(cccc24)CCC3)[C@@H]1c1c[nH]c2ccccc12 [ARQ197]
effect on cMET: selectively inhibits cMET
